Patent publication US6844347B1, “Substituted 4-amino-2aryl-pyrimidines, their production and use and pharmaceutical preparations containing same” (Aventis Pharma Deutschland GmbH, priority 1998, dated 2005)

system: not given; assay: not given; settings: not given

Structure (SMILES) | melting point
CC(C)c1cc(N2CC[S+]([O-])CC2)nc(-c2cc(Cl)cc(Cl)c2)n1 [Example 149, 2-(3,5-dichlorophenyl)-6-isopropyl-4-(1-oxothiomorpholino)pyrimidine] | 187 °C
CC(C)c1cc(N2CCS(=O)(=O)CC2)nc(-c2ccc(Cl)cc2)n1 [Example 145, 2-(4-Chlorophenyl)-6-isopropyl-4-(1,1-dioxothiomorpholino)pyrimidine] | 226 °C
CC(C)c1cc([SH]2(=O)CCNC2)nc(-c2ccc(Cl)cc2)n1 [Example 146, 2-(4-Chlorophenyl)6-isopropyl-4-(1-oxo-1,3-thiazolidin-1-yl)pyrimidine] | 128 °C
Cc1ccc(-c2nc(C(C)C)cc(N3CC[S+]([O-])CC3)n2)cc1 [Example 148, 6-Isopropyl-2-(4-methylphenyl)-4-(1-oxothiomorpholino)pyrimidine] | 152 °C
CC[S+]([O-])CCNc1cc(C(C)C)nc(-c2ccc(Cl)cc2)n1 (stereo not drawn) [Example 147, 2-(4-Chlorophenyl)-4-((2-ethylsulfinylethyl)amino)-6-isopropylpyrimidine] | 103 °C

molecular target: T1, soluble guanylate cyclase (sGC) (Bos taurus, UniProt P16068+P19687); assay: Activation of soluble guanylate cyclase (cGMP enzyme immunoassay); assay type: biochemical; settings: test substance 50 μM; sGC isolated from bovine lung; [cGMP]test substance/[cGMP]control (basal activity with solvent); 37° C., 15 to 20 minutes
T1 construct: The sGC employed had been isolated from bovine lung; from tissue; host or cells: bovine lung
T1 sequence (P19687 1-691): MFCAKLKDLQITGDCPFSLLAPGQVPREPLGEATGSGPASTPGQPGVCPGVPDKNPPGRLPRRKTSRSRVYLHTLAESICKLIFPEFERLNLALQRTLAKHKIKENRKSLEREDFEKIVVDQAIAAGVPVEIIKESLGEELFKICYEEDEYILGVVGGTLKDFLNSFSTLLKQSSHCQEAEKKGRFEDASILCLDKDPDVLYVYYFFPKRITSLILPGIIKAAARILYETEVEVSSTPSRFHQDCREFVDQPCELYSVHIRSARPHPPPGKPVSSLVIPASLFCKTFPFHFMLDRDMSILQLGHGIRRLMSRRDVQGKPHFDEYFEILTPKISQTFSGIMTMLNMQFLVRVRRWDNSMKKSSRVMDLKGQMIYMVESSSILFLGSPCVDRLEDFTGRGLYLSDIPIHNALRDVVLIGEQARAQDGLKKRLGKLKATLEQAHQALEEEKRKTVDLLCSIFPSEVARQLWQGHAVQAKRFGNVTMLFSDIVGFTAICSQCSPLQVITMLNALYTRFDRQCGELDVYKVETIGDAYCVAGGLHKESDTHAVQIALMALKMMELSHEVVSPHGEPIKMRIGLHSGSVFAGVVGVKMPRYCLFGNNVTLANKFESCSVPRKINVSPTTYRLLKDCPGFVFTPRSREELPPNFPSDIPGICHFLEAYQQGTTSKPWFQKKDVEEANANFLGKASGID
T1 sequence (P16068 1-619): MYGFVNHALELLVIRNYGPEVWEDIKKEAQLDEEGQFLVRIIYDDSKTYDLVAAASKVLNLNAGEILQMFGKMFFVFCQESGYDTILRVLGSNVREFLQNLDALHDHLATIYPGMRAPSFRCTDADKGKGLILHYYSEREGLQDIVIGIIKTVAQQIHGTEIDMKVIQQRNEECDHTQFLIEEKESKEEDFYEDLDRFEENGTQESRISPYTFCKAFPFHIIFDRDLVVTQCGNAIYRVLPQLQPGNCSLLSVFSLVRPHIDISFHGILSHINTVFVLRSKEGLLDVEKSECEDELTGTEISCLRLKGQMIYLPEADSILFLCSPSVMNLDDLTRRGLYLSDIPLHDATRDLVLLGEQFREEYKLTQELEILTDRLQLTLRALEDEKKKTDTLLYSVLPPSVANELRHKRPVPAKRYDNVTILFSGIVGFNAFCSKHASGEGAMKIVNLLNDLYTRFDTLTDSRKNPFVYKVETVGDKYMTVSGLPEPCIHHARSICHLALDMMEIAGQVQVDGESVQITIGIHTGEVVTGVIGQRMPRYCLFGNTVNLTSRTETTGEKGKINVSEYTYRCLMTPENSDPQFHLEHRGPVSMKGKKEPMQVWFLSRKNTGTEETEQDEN
Description: The activation of soluble guanylate cyclase (sGC), which catalyzes the conversion of guanosine triphosphate (GTP) to cyclic guanosine monophosphate (cGMP) and pyrophosphate, by the compounds according to the invention was quantified with the aid of an enzyme immunoassay (EIA) from Amersham. For this, the test substances were first incubated with sGC in microtiter plates and then the quantity of the resulting cGMP was determined.
The sGC employed had been isolated from bovine lung (see Methods in Enzymology, Volume 195, p. 377). The test solutions (100 μl per well) contained 50 mM triethanolamine (TEA) buffer (pH 7.5), 3 mM MgCl2, 3 mM reduced glutathione (GSH), 0.1 mM GTP, 1 mM 3-isobutyl-1-methylxanthine (IBMX), suitably diluted enzyme solution and the test substance or, in the control experiments, solvent. The test substances were dissolved in dimethyl sulfoxide (DMSO) and the solution was diluted with DMSO/water such that the final concentration c of test substance in the test batch was 50 μM. The DMSO concentration in the test batch was 5% (v/v). The reaction was started by addition of the sGC. The reaction mix was incubated at 37° C. for 15 to 20 minutes and then stopped by ice-cooling and addition of the stop reagent (50 mM EDTA, pH 8.0). An aliquot of 50 μl was taken and employed for the determination of the cGMP content using the acetylation protocol of the Amersham cGMP EIA kit. The absorption of the samples was measured at 450 nm (reference wavelength 620 nm) in a microtiter plate reading apparatus. The cGMP concentration was determined by means of a calibration curve, which was obtained under the same experimental conditions. The activation of the sGC by a test substance is indicated as n-fold stimulation of the basal enzyme activity which was found in the control experiments (with solvent instead of test substance) (calculated according to the formula n-fold stimulation=[cGMP]test substance/[cGMP]control).

Structure (SMILES) | n-fold stimulation at c = 50 μM
C=CCN(CC=C)c1cc(C(C)C)nc(-c2ccc(Cl)cc2)n1 [Example 36] | >8 n-fold
CCN(CC)c1cc(C(C)C)nc(-c2ccc(C)cc2)n1.Cl [Example 86] | >16 n-fold
CC(C)c1cc(N2CCSCC2)nc(-c2cc(Cl)cc(Cl)c2)n1 [Example 82] | >4 n-fold
CCN(CC)c1cc(C(C)C)nc(-c2cc(Cl)cc(Cl)c2)n1 [Example 80] | >16 n-fold
CC(C)c1cc(N2CCC(C(N)=O)CC2)nc(-c2ccc(Cl)cc2)n1 [Example 44] | >4 n-fold
CCCCNc1cc(C(C)C)nc(-c2cc(Cl)cc(Cl)c2)n1.Cl [Example 79] | >4 n-fold
CCCCNc1cc(C(C)C)nc(-c2ccc(Cl)cc2)n1 [Example 32] | >4 n-fold
CC(C)c1cc(N2CCSC2)nc(-c2ccc(Cl)cc2)n1 [Example 45] | >4 n-fold
Cc1ccc(-c2nc(NC3CCC(O)CC3)cc(C(C)C)n2)cc1 (stereo not drawn) [Example 25] | 28 n-fold
CCCN(CCC)c1cc(C(C)C)nc(-c2ccc(C)cc2)n1 [Example 85] | >16 n-fold
CC(C)c1cc(N2CCOCC2)nc(-c2cc(Cl)cc(Cl)c2)n1 [Example 81] | >4 n-fold
COCCCNc1cc(C(C)C)nc(-c2ccc(C)cc2)n1 [Example 23] | >8 n-fold
CCN(CC)c1cc(-c2ccccc2)nc(-c2ccc(Cl)cc2)n1 [Example 63] | >4 n-fold
CC(C)c1cc(N2CCSCC2)nc(-c2ccc(Cl)cc2)n1.Cl [Example 30] | >4 n-fold
CC(C)c1cc(N2CCCCCC2)nc(-c2ccc(Cl)cc2)n1 [Example 38] | >8 n-fold
CCN(CC)c1cc(C(C)C)nc(-c2ccc(Cl)cc2)n1 [Example 33] | >16 n-fold
CCCN(CCC)c1cc(-c2ccccc2)nc(-c2ccc(Cl)cc2)n1 [Example 69] | >4 n-fold
CC(C)(C)c1cc(N2CCSCC2)nc(-c2ccc(Cl)cc2)n1 [Example 66] | >4 n-fold
CC(C)(C)c1cc(N2CCOCC2)nc(-c2ccc(Cl)cc2)n1 [Example 52] | >8 n-fold
CC(C)c1cc(N2CCCC2)nc(-c2ccc(Cl)cc2)n1.Cl [Example 29] | >4 n-fold
CCCCN(CCCC)c1cc(C(C)C)nc(-c2ccc(Cl)cc2)n1.Cl [Example 34] | >4 n-fold
CC(C)c1cc(NC2CCC(O)CC2)nc(-c2cc(Cl)cc(Cl)c2)n1 (stereo not drawn) [Example 77] | 30 n-fold
CCN(Cc1ccccc1)c1cc(C(C)C)nc(-c2ccc(Cl)cc2)n1 [Example 43] | >4 n-fold
CCCN(CCC)c1cc(C(C)C)nc(-c2cc(Cl)cc(Cl)c2)n1 [Example 84] | >16 n-fold
CCCN(CCC)c1cc(C(C)C)nc(-c2ccc(Cl)cc2)n1.Cl [Example 35] | >16 n-fold

Second part, the compound after the results:

n-fold stimulation at c = 50 μM | Structure (SMILES)
>8 n-fold | Cc1ccc(-c2nc(C(C)C)cc(N3CCCCCC3)n2)cc1 [Example 100]
>8 n-fold | COCCN(CCOC)c1cc(C(C)C)nc(-c2ccc(C)cc2)n1 [Example 98]
>8 n-fold | Cc1ccc(-c2nc(C(C)C)cc(N3CCOCC3)n2)cc1 [Example 89]
>16 n-fold | CC(C)c1cc(NC2CCCC2)nc(-c2ccc(Cl)cc2)n1 [Example 124]
>8 n-fold | CCCCNc1cc(C(C)C)nc(-c2ccc(C)cc2)n1 [Example 88]
>4 n-fold | Cc1ccc(-c2nc(C(C)C)cc(N3CCC(C(N)=O)CC3)n2)cc1 [Example 99]
>16 n-fold | Cc1ccc(-c2nc(C(C)C)cc(N3CCSCC3)n2)cc1 [Example 90]
>16 n-fold | Cc1ccc(-c2nc(C(C)C)cc(N3C[C@@H](C)O[C@@H](C)C3)n2)cc1 [Example 97]
>16 n-fold | CC(C)(C)c1cc(N[C@H]2CC[C@H](O)CC2)nc(-c2ccc(Cl)cc2)n1 [Example 133]
>16 n-fold | CC(C)c1cc(NCCCCO)nc(-c2ccc(Cl)cc2)n1 [Example 137]
>8 n-fold | Clc1ccc(-c2nc(-c3ccccc3)cc(N3CCCCCC3)n2)cc1 [Example 112]
32 n-fold | CC(C)c1cc(N[C@H]2CC[C@H](O)CC2)nc(-c2ccc(Cl)cc2)n1 [Example 125]
